Data on 7 molecules can be found in PubChem BioAssay AID1259407 (Chemical Carcinogenesis Research Information System (CCRIS), 2018).

The source made the active and inactive calls. The rule behind the calls is not given here.

The data set deals with CCRIS mutagenicity, Ames/micronucleus/aberration tests. The data set is described as follows: CCRIS mutagenicity studies.
Where [1] appears, read: Test System: AMES SALMONELLA TYPHIMURIUM, Strain/Indicator: TA98, Metabolic Activation: NONE, Method: STANDARD PLATE.
Where [2] appears, read: Test System: AMES SALMONELLA TYPHIMURIUM, Strain/Indicator: TA100, Metabolic Activation: NONE, Method: STANDARD PLATE.
The mark [3] stands for this setting: Test System: AMES SALMONELLA TYPHIMURIUM, Strain/Indicator: TA104, Metabolic Activation: NONE, Method: STANDARD PLATE.
[4] abbreviates: Test System: AMES SALMONELLA TYPHIMURIUM, Strain/Indicator: TA98, Metabolic Activation: NONE, Method: PREINCUBATION
Where [5] appears, read: Test System: AMES SALMONELLA TYPHIMURIUM, Strain/Indicator: TA98, Metabolic Activation: RAT, LIVER, S-9, AROCLOR 1254, Method: PREINCUBATION
[6] abbreviates: Test System: AMES SALMONELLA TYPHIMURIUM, Strain/Indicator: TA100, Metabolic Activation: NONE, Method: PREINCUBATION
The mark [7] stands for this setting: Test System: AMES SALMONELLA TYPHIMURIUM, Strain/Indicator: TA100, Metabolic Activation: RAT, LIVER, S-9, AROCLOR 1254, Method: PREINCUBATION

Regarding `ClC(Cl)(Cl)Br`, the mutagenic call was “active; positive” (Test System: AMES SALMONELLA TYPHIMURIUM, Strain/Indicator: TA97, Metabolic Activation: NONE, Method: STANDARD PLATE); “active; positive” (Test System: AMES SALMONELLA TYPHIMURIUM, Strain/Indicator: TA97, Metabolic Activation: RAT, LIVER, S-9, AROCLOR 1254, Method: STANDARD PLATE); “active; positive” under setting [1]; “inactive; negative” (Test System: AMES SALMONELLA TYPHIMURIUM, Strain/Indicator: TA98, Metabolic Activation: RAT, LIVER, S-9, AROCLOR 1254, Method: STANDARD PLATE); “inactive; negative” under setting [2]; “inactive; negative” (Test System: AMES SALMONELLA TYPHIMURIUM, Strain/Indicator: TA100, Metabolic Activation: RAT, LIVER, S-9, AROCLOR 1254, Method: STANDARD PLATE). The mutagenic call reads like this: under setting [3], “active; positive”; (Test System: AMES SALMONELLA TYPHIMURIUM, Strain/Indicator: TA104, Metabolic Activation: RAT, LIVER, S-9, AROCLOR 1254, Method: STANDARD PLATE) “active; positive”.
As for `CCC(=O)C(C)=O`, the mutagenic call is, setting by setting: under setting [4], “inactive; negative”; under setting [5], “inactive; negative”; under setting [6], “inactive; negative”; under setting [7], “inactive; negative”; (Test System: AMES SALMONELLA TYPHIMURIUM, Strain/Indicator: TA102, Metabolic Activation: NONE, Method: PREINCUBATION) “inactive; negative”; (Test System: AMES SALMONELLA TYPHIMURIUM, Strain/Indicator: TA102, Metabolic Activation: RAT, LIVER, S-9, AROCLOR 1254, Method: PREINCUBATION) “inactive; negative”.
Take `C=CC(O)CCCCC` (stereo not drawn): the mutagenic call was “inactive; negative” (Test System: CHINESE HAMSTER V-79, Strain/Indicator: V-79 (HPRT)/6-THIOGUANINE, Metabolic Activation: NONE, Method: STANDARD PLATE) and “inactive; negative” (Test System: CHINESE HAMSTER V-79, Strain/Indicator: V-79 (HPRT)/6-THIOGUANINE, Metabolic Activation: RAT LIVER S-9, Method: STANDARD PLATE).
As to `C[C@](N)(Cc1ccc(O)c(O)c1)C(=O)O`, the mutagenic call (End Point: IN VITRO CHROMOSOMAL ABERRATIONS, Test System: CHO CELLS, Metabolic Activation: NONE) was “inactive; negative”; the mutagenic call (End Point: IN VITRO CHROMOSOMAL ABERRATIONS, Test System: CHO CELLS, Metabolic Activation: RAT, LIVER, S-9, AROCLOR 1254) was “inactive; negative; testing limited by solubility of the chemical”; the mutagenic call (Test System: AMES SALMONELLA TYPHIMURIUM, Strain/Indicator: TA97, Metabolic Activation: HAMSTER, LIVER, S-9, AROCLOR 1254 (10 OR 30%), Method: PREINCUBATION) was “inactive; negative”; the mutagenic call (Test System: AMES SALMONELLA TYPHIMURIUM, Strain/Indicator: TA97, Metabolic Activation: HAMSTER, LIVER, S-9, AROCLOR 1254, Method: PREINCUBATION) was “inactive; negative”; the mutagenic call (Test System: AMES SALMONELLA TYPHIMURIUM, Strain/Indicator: TA97, Metabolic Activation: NONE, Method: PREINCUBATION) is “inactive; negative”; the mutagenic call (Test System: AMES SALMONELLA TYPHIMURIUM, Strain/Indicator: TA97, Metabolic Activation: RAT, LIVER, S-9, AROCLOR 1254 (10 OR 30%), Method: PREINCUBATION) was “inactive; negative”. Further, the mutagenic call reads like this: (Test System: AMES SALMONELLA TYPHIMURIUM, Strain/Indicator: TA97, Metabolic Activation: RAT, LIVER, S-9, AROCLOR 1254, Method: PREINCUBATION) “inactive; negative”; (Test System: AMES SALMONELLA TYPHIMURIUM, Strain/Indicator: TA98, Metabolic Activation: HAMSTER, LIVER, S-9, AROCLOR 1254 (10%), Method: PREINCUBATION) “inactive; negative”; (Test System: AMES SALMONELLA TYPHIMURIUM, Strain/Indicator: TA98, Metabolic Activation: HAMSTER, LIVER, S-9, AROCLOR 1254 (30%), Method: PREINCUBATION) “inactive; negative”; (Test System: AMES SALMONELLA TYPHIMURIUM, Strain/Indicator: TA98, Metabolic Activation: HAMSTER, LIVER, S-9, AROCLOR 1254, Method: PREINCUBATION) “inactive; negative”; under setting [4], “inactive; negative”; (Test System: AMES SALMONELLA TYPHIMURIUM, Strain/Indicator: TA98, Metabolic Activation: RAT, LIVER, S-9, AROCLOR 1254 (10%), Method: PREINCUBATION) “inactive; negative”. The mutagenic call (Test System: AMES SALMONELLA TYPHIMURIUM, Strain/Indicator: TA98, Metabolic Activation: RAT, LIVER, S-9, AROCLOR 1254 (30%), Method: PREINCUBATION) is “inactive; negative”; the mutagenic call under setting [5] was “inactive; negative”; the mutagenic call (Test System: AMES SALMONELLA TYPHIMURIUM, Strain/Indicator: TA100, Metabolic Activation: HAMSTER, LIVER, S-9, AROCLOR 1254 (10%), Method: PREINCUBATION) was “inactive; negative”; the mutagenic call (Test System: AMES SALMONELLA TYPHIMURIUM, Strain/Indicator: TA100, Metabolic Activation: HAMSTER, LIVER, S-9, AROCLOR 1254 (30%), Method: PREINCUBATION) was “inactive; negative”; the mutagenic call (Test System: AMES SALMONELLA TYPHIMURIUM, Strain/Indicator: TA100, Metabolic Activation: HAMSTER, LIVER, S-9, AROCLOR 1254, Method: PREINCUBATION) was “inactive; negative”; the mutagenic call under setting [6] is “inactive; negative”. The mutagenic call is, setting by setting: (Test System: AMES SALMONELLA TYPHIMURIUM, Strain/Indicator: TA100, Metabolic Activation: RAT, LIVER, S-9, AROCLOR 1254 (10%), Method: PREINCUBATION) “inactive; negative”; (Test System: AMES SALMONELLA TYPHIMURIUM, Strain/Indicator: TA100, Metabolic Activation: RAT, LIVER, S-9, AROCLOR 1254 (30%), Method: PREINCUBATION) “inactive; negative”; under setting [7], “inactive; negative”; (Test System: AMES SALMONELLA TYPHIMURIUM, Strain/Indicator: TA1535, Metabolic Activation: HAMSTER, LIVER, S-9, AROCLOR 1254 (10%), Method: PREINCUBATION) “inactive; negative”; (Test System: AMES SALMONELLA TYPHIMURIUM, Strain/Indicator: TA1535, Metabolic Activation: HAMSTER, LIVER, S-9, AROCLOR 1254 (30%), Method: PREINCUBATION) “inactive; negative”; (Test System: AMES SALMONELLA TYPHIMURIUM, Strain/Indicator: TA1535, Metabolic Activation: HAMSTER, LIVER, S-9, AROCLOR 1254, Method: PREINCUBATION) “inactive; negative”. Moreover, the mutagenic call runs as follows: (Test System: AMES SALMONELLA TYPHIMURIUM, Strain/Indicator: TA1535, Metabolic Activation: NONE, Method: PREINCUBATION) “inactive; negative”; (Test System: AMES SALMONELLA TYPHIMURIUM, Strain/Indicator: TA1535, Metabolic Activation: RAT, LIVER, S-9, AROCLOR 1254 (10%), Method: PREINCUBATION) “inactive; negative”; (Test System: AMES SALMONELLA TYPHIMURIUM, Strain/Indicator: TA1535, Metabolic Activation: RAT, LIVER, S-9, AROCLOR 1254 (30%), Method: PREINCUBATION) “inactive; negative”; (Test System: AMES SALMONELLA TYPHIMURIUM, Strain/Indicator: TA1535, Metabolic Activation: RAT, LIVER, S-9, AROCLOR 1254, Method: PREINCUBATION) “inactive; negative”.
For `CC(O)C(=O)[O][Al]([O]C(=O)C(C)O)[O]C(=O)C(C)O` (stereo not drawn), the mutagenic call runs as follows: (Test System: AMES SALMONELLA TYPHIMURIUM, Strain/Indicator: TA92, Metabolic Activation: NONE, Method: STANDARD PLATE) “inactive; negative”; under setting [1], “inactive; negative”; under setting [2], “inactive; negative”; under setting [3], “inactive; negative”.
As to `Nc1ccc2c(ccc3c4ccccc4ccc23)c1`, the mutagenic call by setting is: (Test System: AMES SALMONELLA TYPHIMURIUM, Strain/Indicator: TA98, Metabolic Activation: RAT LIVER S-9, AROCLOR 1254 (10%), Method: STANDARD PLATE) “active; positive”; (Test System: AMES SALMONELLA TYPHIMURIUM, Strain/Indicator: TA98, Metabolic Activation: RAT, LIVER, CYTOSOL, AROCLOR 1254, Method: STANDARD PLATE) “active; positive”; (Test System: AMES SALMONELLA TYPHIMURIUM, Strain/Indicator: TA98, Metabolic Activation: RAT, LIVER, MICROSOMES, AROCLOR 1254, Method: STANDARD PLATE) “active; positive”.
For `CCCCN(N=O)/C(C=O)=N/O`, the mutagenic call is, setting by setting: (Test System: AMES SALMONELLA TYPHIMURIUM, Strain/Indicator: TA1535, Metabolic Activation: NONE, Method: STANDARD PLATE) “active; positive”; (Test System: E. COLI, Strain/Indicator: WP2 (HCR-), Metabolic Activation: NONE, Method: STANDARD PLATE) “active; positive”.
